From the supplement of paper PMC10307832

Key:
Test in all cases: relative viability (nuclei count vs DMSO), 5 days (fraction); higher = more cells survive
[1] = compound: CN(C)CC1=CC(=CC=C1)N=C(C2=CC=CC=C2)C3=C(NC4=C3C=CC(=C4)C(=O)N(C)C)O + CS(=O)(=O)N1CCN(Cc2cc3nc(-c4cccc5[nH]ncc45)nc(N4CCOCC4)c3s2)CC1 [Pictilisib] (partner 1 µM)
How it was run: (§1)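 Medians of duplicate plates are given as relative viability. That measure is the nuclei count in treated wells divided by the count in vehicle wells. Counts were taken on 4× images of lung cancer cell lines in 1536-well plates, 5 days after pin-tool dosing the day after seeding with one drug alone or a fixed anchor-drug dose plus five library-drug doses (not always all listed) in √10 steps.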

[2] = compound: CN(C)CC1=CC(=CC=C1)N=C(C2=CC=CC=C2)C3=C(NC4=C3C=CC(=C4)C(=O)N(C)C)O + C[C@]1(O)C[C@@H](c2nc(-c3ccc4ccc(-c5ccccc5)nc4c3)c3c(N)nccn32)C1 [Linsitinib] (partner 1 µM)
How it was run: as §1

[3] = compound: CN(C)CC1=CC(=CC=C1)N=C(C2=CC=CC=C2)C3=C(NC4=C3C=CC(=C4)C(=O)N(C)C)O + Cc1nc(NC(=O)N2CCC[C@H]2C(N)=O)sc1-c1ccnc(C(C)(C)C(F)(F)F)c1 [Alpelisib] (partner 2 µM)
How it was run: as §1

[4] = compound: CN(C)CC1=CC(=CC=C1)N=C(C2=CC=CC=C2)C3=C(NC4=C3C=CC(=C4)C(=O)N(C)C)O + Nc1ncn([C@H]2C[C@H](O)[C@@H](CO)O2)c(=O)n1 [Decitabine] (partner 2 µM)
How it was run: as §1

Cell Line	relative viability ([1]; first compound 0.08 µM)	relative viability ([1]; first compound 0.253 µM)	relative viability ([1]; first compound 0.8 µM)	relative viability ([1]; first compound 2.53 µM)	relative viability ([1]; first compound 8 µM)	relative viability ([2]; first compound 0.08 µM)	relative viability ([2]; first compound 0.253 µM)	relative viability ([2]; first compound 0.8 µM)	relative viability ([2]; first compound 2.53 µM)	relative viability ([2]; first compound 8 µM)	relative viability ([3]; first compound 0.08 µM)	relative viability ([3]; first compound 0.253 µM)	relative viability ([3]; first compound 0.8 µM)	relative viability ([3]; first compound 2.53 µM)	relative viability ([3]; first compound 8 µM)	relative viability ([4]; first compound 0.08 µM)	relative viability ([4]; first compound 0.253 µM)	relative viability ([4]; first compound 0.8 µM)	relative viability ([4]; first compound 2.53 µM)	relative viability ([4]; first compound 8 µM)
201T	0.674	0.709	0.681	0.662	0.675	1.07	1.06	0.937	1.04	0.927	1	0.968	0.977	0.962	0.955	0.836	0.874	0.849	0.855	0.738
NCI-H358	0.384	0.28	0.34	0.331	0.347	0.779	0.715	0.673	0.621	0.464	0.743	0.814	0.766	0.718	0.606	0.198	0.214	0.212	0.214	0.236
NCI-H1666	0.507	0.528	0.4	0.486	0.545	0.695	0.934	0.741	0.941	0.731	1.07	0.98	1.01	1.18	0.946	0.694	0.715	0.68	0.769	0.744
LXF-289	0.778	0.793	0.794	0.706	0.731	0.935	0.931	0.955	0.857	0.915	1.04	1	0.966	0.971	0.941	0.343	0.368	0.366	0.384	0.374
LC-2-ad	0.453	0.383	0.442	0.521	0.231	0.844	0.745	0.884	0.808	0.593	0.896	0.86	0.857	0.848	0.672	0.694	0.848	0.747	0.841	0.782
LCLC-103H	0.595	0.671	0.616	0.586	0.593	1.15	1.11	0.941	0.904	0.908	0.987	0.923	0.938	0.876	0.98	0.785	0.725	0.723	0.739	0.641
NCI-H1993	0.826	0.86	0.98	0.799	0.768	0.716	0.787	0.7	0.737	0.799	0.83	0.671	0.622	0.694	0.732	0.643	0.55		0.617	0.687
NCI-H441	0.451	0.471	0.484	0.481	0.335	0.593	0.539	0.507	0.496	0.418	0.717	0.761	0.642	0.834	0.495	0.248	0.282	0.282	0.237	0.221
EKVX	0.425	0.452	0.384	0.431	0.574	1.1	0.925	1.05	1.06	1.07	0.878	0.847	0.843	0.886	0.879	0.41	0.321		0.36	0.34
NCI-H1437	0.465	0.49	0.489	0.453	0.44	0.948	1.07	1.05	1.01	1.03	1.01	0.996	0.951	0.906	0.971	0.559	0.609	0.576	0.577	0.685
PC-3 [JPC-3]	0.613	0.88	0.655	0.76	0.829	0.985	0.907	0.883	0.967	1.06	1.02	0.976	1.04	1.01	1.02	0.761	0.763	0.804	0.837	0.842
NCI-H650	1	0.789	0.955	0.768	0.766	0.854	0.965	0.952	0.83	0.767	1.05	0.956	1.2	0.945	0.825	0.364	0.408	0.335	0.33	0.371
UMC-11	0.971	0.82	0.771	0.776	0.638	1.01	0.986	0.985	0.999	0.926	0.972	0.882	1.12	0.923	0.968	0.724	0.633	0.693	0.546	0.611
NCI-H520	0.271	0.294	0.316	0.215	0.221	0.896	0.878	0.919	0.834	0.97	0.865	0.871	0.825	0.725	0.656	0.489	0.528	0.481	0.5	0.511
NCI-H727	0.515	0.32	0.397	0.47	0.572	0.253	0.349	0.197	0.281	0.24	0.631	0.564	0.621	0.603	0.608		0.817	0.841	1.09	0.864
SK-MES-1	0.301	0.316	0.368	0.332	0.249	1.1	1	1.07	0.918	0.988	0.876	0.883	0.716	0.851	0.875	0.392	0.351	0.4	0.374	0.39
NCI-H1975	0.306	0.324	0.245	0.257	0.275	0.935	0.999	0.824	0.871	0.855	0.632	0.646	0.545	0.553	0.471	0.45	0.409	0.368	0.397	0.381
A549	0.525	0.509	0.448	0.438	0.384	0.595	0.575	0.518	0.544	0.475	0.77	0.921	0.883	0.711	0.592		0.286	0.27	0.223	0.246
NCI-H3122	0.664	0.55	0.643	0.698	0.746	1.08	1.05	1.08	0.972	1.05	0.679	0.81	0.813	0.732	0.792	0.508	0.387	0.454	0.504	0.46
LU99A	0.322	0.33	0.366	0.301	0.305	0.546	0.545	0.496	0.534	0.485	0.486	0.579	0.497	0.559	0.364	0.925	0.79	0.885	0.927	0.673
EPLC-272H	0.301	0.331	0.323	0.347	0.457	1.21	1.11	0.937	1.15	0.934	0.935	0.872	0.825	1.06	0.856	0.39	0.422	0.297	0.471	0.383
NCI-H2009	0.792	0.766	0.795	0.803	0.541	1.19	1.21	1.21	1.12	1.19	1.15	1.11	1.1	1.04	1.05	0.364	0.427	0.432	0.343	0.379
BEN	0.664	0.587	0.584	0.55	0.509	0.98	0.876	0.793	0.846	0.75	1.02	0.947	1.08	0.928	0.82	0.674	0.913	0.787	0.69	0.771
NCI-H1755	0.46	0.433	0.349	0.418	0.381	0.986	1.01	0.926	0.998	0.973	0.903	0.91	0.916	0.867	0.853	0.674	0.706	0.63	0.689	0.719
NCI-H2405	0.457	0.357	0.441	0.385	0.382	1.01	0.845	1.03	0.867	0.76	0.87	0.713	0.889	0.721	0.654	0.78	0.77	0.758	0.67	0.696
NCI-H647	0.476	0.475	0.409	0.364	0.413	1.29	1.11	0.858	1.12	0.795	1.2	1.14	1.14	0.98	0.66	0.414	0.477	0.423	0.438	0.488
COR-L 105	0.356	0.381	0.39	0.377	0.332	0.888	0.838	1.1	1.02	0.805	0.844	0.892	1.01	0.813	0.808	1.12	0.621	0.635	0.667	0.628
